According to patent US20230322805A1, “NOVEL PYRIMIDODIAZEPINE DERIVATIVES OR USES THEREOF” (SPARK BIOPHARMA, INC., priority 2020, published 2023):

Assays:
[1] = tested on: BiFC-tau Venus HEK293 cells (tau aggregation, hTau441); test: BiFC-tau Venus HEK293 cell assay monitoring tau aggregation under thapsigargin; format: cell-based, human
Method: Phenotype-based screening to monitor tau assembly was performed using BiFC-tau Venus HEK293 cells in a high-throughput manner. Cells were seeded in 384-well plates at a density of 2.8×10^3 cells/well in 40 μL medium for 24 hours. Cells were treated with 80 nM thapsigargin (Sigma-Aldrich) in 10 μL medium and then ˜ 3,000 pDOS library compounds (10 μM), including compounds according to the present invention, using a 0.1 μL pinning tool. For knockdown experiments, cells were transfected with 5 or 10 nM siRNA using Lipofectamine RNAiMAX and incubated for 48 hours before thapsigargin treatment. […] Plates were scanned on an INCell Analyzer 2000 (GE Healthcare) at λex/λem=490/525 nm for Venus fluorescence (for the FITC channel) and λex/λem=350/455 nm for nuclei (for the DAPI channel). Bright-field images were taken to confirm cell morphology, and images were analyzed to quantify Venus intensity per cell using developer software (GE Healthcare).
1-1. According to the method described in Examples 1-15 above, the expression of Venus-based bimolecular fluorescence complemented-tau (BiFC-tau) was confirmed using HEK293 human embryonic kidney cells, thereby phenotyping the phenotype-based screening was performed.
The N-terminal Venus (VN173) and C-terminal Venus (VC155) fragment sequences are fused with the full-length human tau (hTau441) sequence to form the BiFC-tau Venus HEK293 cell system. Soluble tau dimers can be measured by monitoring the turn-on/off signal of Venus fluorescence through co-expression of the two fused vectors, hTau441-VN173 and hTau441-VC1 55.
As a stimulator of tau aggregation, thapsigargin (TG; an ER stress inducer), a direct inhibitor of sarco/endoplasmic reticulum Ca2^+-ATPase, was used. This disrupts calcium homeostasis. Thapsigargin treatment induces tau dimerization (tau aggregation), which can be confirmed by BiFC-tau Venus fluorescence turn-on.

DNAJC3 = target: T1, DNAJC3 (Homo sapiens, UniProt Q13217); test: CETSA and pull-down assay with probe SB1624; format: binding; set-up: endogenous in cells; host or cells: HEK293 BiFC-tau cells (TS-FITGE, CETSA); SH-SY5Y cells (pull-down with probe SB1624); conditions: CETSA 10 μM in HEK293 BiFC-tau cells; pull-down 5 μM SB1624 with or without 40 μM SB1617 in SH-SY5Y cells
T1 sequence (Q13217 32-504): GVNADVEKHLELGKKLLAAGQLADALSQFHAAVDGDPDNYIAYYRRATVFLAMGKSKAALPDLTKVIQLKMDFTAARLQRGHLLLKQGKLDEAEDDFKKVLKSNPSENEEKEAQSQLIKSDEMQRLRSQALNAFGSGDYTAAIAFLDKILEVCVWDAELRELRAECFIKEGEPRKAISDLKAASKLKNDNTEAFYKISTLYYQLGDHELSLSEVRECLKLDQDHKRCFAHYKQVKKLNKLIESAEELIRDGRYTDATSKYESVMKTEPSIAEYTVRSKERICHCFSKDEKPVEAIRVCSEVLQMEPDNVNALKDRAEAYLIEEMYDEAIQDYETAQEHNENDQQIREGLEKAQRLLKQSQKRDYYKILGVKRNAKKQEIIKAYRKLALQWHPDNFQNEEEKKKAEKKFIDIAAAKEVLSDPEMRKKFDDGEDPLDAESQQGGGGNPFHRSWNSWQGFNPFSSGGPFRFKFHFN
Method: HEK293 BiFC-tau cells were treated with DMSO (0.1%) and a compound according to the present invention (10 μM) in the presence of thapsigargin (200 nM) for 3 hours. The cell suspension was heated at the indicated temperature range for 3 minutes and then at 25° C. for 3 minutes. The heated cells were washed with PBS and resuspended in Lysis Buffer A. For cell lysis, cell suspensions were freeze-thawed in liquid nitrogen three times. The cell lysate was washed by centrifugation at 20000 g, 4° C. for 20 minutes. Equal volumes of washed cell lysate were combined with SDS buffer and subjected to immunoblotting.
SH-SY5Y cells were seeded in 6-well plates and then treated with 1 μM thapsigargin and 5 μM SB1624 (probe compound) for 2.5 hours with or without 40 μM SB1617. Cells were exposed to 356 nm UV irradiation for 30 min on ice. After washing with cold PBS, cells were lysed in RIPA buffer and removed by centrifugation at […] for 15 minutes at 4° C. The protein concentration of the supernatant was determined by Pierce BCA Protein Assay Kit and the protein concentration was adjusted to 1 mg/mL. […] Proteins were eluted by boiling with 3×SDS sample buffer and analyzed by SDS-PAGE and Western blot. […]

CN(Cc1ccc(Cl)cc1)c1ncnc2c1[C@@H]1OC[C@H](CN2)N1S(=O)(=O)c1ccc([N+](=O)[O-])cc1 [Compound 117]
BiFC-Venus fluorescence induced by thapsigargin (FITC channel image) ([1]; 10 μM SB1617 with 80 nM thapsigargin, 24 hours): suppresses BiFC-Venus fluorescence | IC50 ([1]; Homo sapiens, HEK293, inhibition of BiFC-tau Venus fluorescence, 80 nM thapsigargin, table head prints no unit, μM, read-out: BiFC-tau intensity (IC50)): 1.9 µM | activity at 10 µM ([1]; Homo sapiens, HEK293-BiFC-tau-Venus cells co-treated with 10 μM compound and 80 nM thapsigargin for 24 hours, read-out: BiFC-tau intensity (%)): 36% | change in Venus fluorescence intensity ([1]; various concentrations with 80 nM TG for 20 hours): dose dependent | specific binding (CETSA, pull-down) (DNAJC3): specifically binds
